Reference: ChEMBL document CHEMBL2380228, “Nucleotide competing reverse transcriptase inhibitors: discovery of a series of non-basic benzofurano[3,2-d]pyrimidin-2-one derived inhibitors” (Bioorg Med Chem Lett, 2013)
Values after ≈ are worked out from the molar mass of the structure shown.

Legend:
[1] = Inhibition of HIV-1 BH10 reverse transcriptase using poly(rA)/oligo(dT)15 as substrate after 60 mins by plate reader analysis; set-up: species or system Human immunodeficiency virus type 1 BH10
[2] = tested on: Human immunodeficiency virus type 1 BH10; experiment: Inhibition of HIV-1 BH10 reverse transcriptase using poly(rA)/oligo(dT)15 as substrate at > 685 nM after 60 mins by plate reader analysis
[3] = Solubility of the compound in phosphate buffer at pH 2.0 after 24 hrs at 25 degC by LC-MS analysis; assay type: physicochemical
[4] = Solubility of the compound in phosphate buffer at pH 6.8 after 24 hrs at 25 degC by LC-MS analysis; assay type: physicochemical
[5] = tested on: Human immunodeficiency virus 1; experiment: Antiviral activity against wild type HIV1-infected human C8166 cells after 1.5 hrs by luciferase reporter gene assay; assay type: functional, organism-based; conditions: Human immunodeficiency virus 1, C8166, 1.5 h
[6] = Cytotoxicity against human C8166-LTR-Luc cells after 3 days by MTT assay; assay type: cell-based
[7] = Permeability from apical to basolateral side of human Caco2 cells; assay type: ADME, cell-based; conditions: Caco-2, read-out: permeability
[8] = Clearance in human liver microsomes at 1 uM by LC-MS/MS analysis relative to hepatic blood flow; assay type: ADME, Microsome; conditions: read-out: CLH
[9] = Clearance in rat liver microsomes at 1 uM by LC-MS/MS analysis relative to hepatic blood flow; assay type: ADME, Microsome; conditions: read-out: CLH
[10] = tested on: Human immunodeficiency virus type 1 BH10; experiment: Inhibition of HIV-1 BH10 reverse transcriptase using poly(rA)/oligo(dT)15 as substrate at > 1100 nM after 60 mins by plate reader analysis
[11] = tested on: Human immunodeficiency virus type 1 BH10; experiment: Inhibition of HIV-1 BH10 reverse transcriptase using poly(rA)/oligo(dT)15 as substrate at > 365 nM after 60 mins by plate reader analysis
[12] = Lipophilicity, log D of the compound in n-octanol buffer at 0.5 mg after 2 to 24 hrs by LC-MS analysis; assay type: physicochemical
[13] = Cytotoxicity against human C8166-LTR-Luc cells assessed as inhibition of cell viability at > 3.6 uM after 3 days by MTT assay; assay type: cell-based; conditions: read-out: INH
[14] = tested on: Human immunodeficiency virus type 1 BH10; experiment: Inhibition of HIV-1 BH10 reverse transcriptase using poly(rA)/oligo(dT)15 as substrate at > 4700 nM after 60 mins by plate reader analysis

| SMILES | IC50 [1] [nM] | EC50 [5] [nM] | Papp A→B [7] [×10⁻⁶ cm/s] | hepatic extraction ratio at 1 µM [8] | CC50 at 72 h [6] [nM] | further results |
| --- | --- | --- | --- | --- | --- | --- |
| CCCCn1c(=O)nc(-c2ccccc2)c2oc3ccc(-c4ccc(CN(C)C)cc4)cc3c21 | 42 |  |  |  |  |  |
| CCCn1c(=O)nc(-c2ccccc2)c2oc3ccc(-c4ccc(CN(C)C)cc4)cc3c21 | > 685 |  |  |  |  | inhibition [2]: 45% |
| CNc1ccc(-c2nc(=O)n(CC[C@@H]3CCCO3)c3c2oc2ncc(-c4cnn(C)c4)cc23)cn1 |  |  |  |  |  | solubility at 24 h [3]: > 844 µg/mL; solubility at 24 h [4]: > 928 µg/mL |
| CCOC(=O)CCCn1c(=O)nc(-c2ccccc2)c2oc3ccc(-c4ccc(CN(C)C)cc4)cc3c21 | > 1100 |  |  |  |  | inhibition [10]: 14% |
| CN(C)Cc1ccc(-c2ccc3oc4c(-c5ccccc5)nc(=O)n(C)c4c3c2)cc1 | 645 |  |  |  |  |  |
| CN(C)Cc1ccc(-c2ccc3oc4c(-c5ccccc5)nc(=O)n(CCCc5ccccc5)c4c3c2)cc1 | > 365 |  |  |  |  | inhibition [11]: 25% |
| COCCCn1c(=O)nc(-c2ccccc2)c2oc3ccc(-c4ccc(CN(C)C)cc4)cc3c21 | 39 |  |  |  |  |  |
| CCn1c(=O)nc(-c2ccccc2)c2oc3ccc(-c4ccc(CN(C)C)cc4)cc3c21 | 890 |  |  |  |  |  |
| CC(C)CCn1c(=O)nc(-c2ccccc2)c2oc3ccc(-c4ccc(CN(C)C)cc4)cc3c21 | 190 |  |  |  |  |  |
| CC(C)Cn1c(=O)nc(-c2ccccc2)c2oc3ccc(-c4ccc(CN(C)C)cc4)cc3c21 | 655 |  |  |  |  |  |
| CN(C)Cc1ccc(-c2ccc3oc4c(-c5ccccc5)nc(=O)n(-c5ccccc5)c4c3c2)cc1 | 245 |  |  |  |  |  |
| COC[C@H](C)Cn1c(=O)nc(-c2ccccc2)c2oc3ccc(-c4ccc(CN(C)C)cc4)cc3c21 | 195 |  |  |  |  |  |
| COCCn1c(=O)nc(-c2ccccc2)c2oc3ccc(-c4ccc(CN(C)C)cc4)cc3c21 | 2330 |  |  |  |  |  |
| CCCCCn1c(=O)nc(-c2ccccc2)c2oc3ccc(-c4ccc(CN(C)C)cc4)cc3c21 | 27 |  |  |  |  |  |
| COC[C@@H](C)Cn1c(=O)nc(-c2ccccc2)c2oc3ccc(-c4ccc(CN(C)C)cc4)cc3c21 | 635 |  |  |  |  |  |
| COCCCn1c(=O)nc(-c2ccc(N3CCN(C(C)C)CC3)cc2)c2oc3ccc(Cl)cc3c21 | 9.1 | 35 | 2.7 | 0.51 | 2300 |  |
| CC(C)CCCn1c(=O)nc(-c2ccccc2)c2oc3ccc(-c4ccc(CN(C)C)cc4)cc3c21 | 55 |  |  |  |  |  |
| COCCCn1c(=O)nc(-c2ccc(N3CCN(CCOC)CC3)cc2)c2oc3ccc(Cl)cc3c21 | 10 | 130 | 8 | 0.61 | > 4200 |  |
| CC(C)n1c(=O)nc(-c2ccccc2)c2oc3ccc(-c4ccc(CN(C)C)cc4)cc3c21 | 800 |  |  |  |  |  |
| COCCCCn1c(=O)nc(-c2ccccc2)c2oc3ccc(-c4ccc(CN(C)C)cc4)cc3c21 | 86 |  |  |  |  |  |
| COCCCn1c(=O)nc(-c2ccc(N3CCN(C4CC4)CC3)cc2)c2oc3ccc(Cl)cc3c21 | 13 | 290 | 8.9 | 0.52 | > 3600 | cytotoxicity at 72 h [13]: 20% |
| CNc1ccc(-c2nc(=O)n(CC[C@H]3CCCO3)c3c2oc2ncc(-c4cnn(C)c4)cc23)cn1 |  |  |  |  |  | solubility at 24 h [3]: > 871 µg/mL; solubility at 24 h [4]: 1.2 µg/mL (≈ 2.54 µM) |
| CN(C)Cc1ccc(-c2ccc3oc4c(-c5ccccc5)nc(=O)n(CCCC(=O)O)c4c3c2)cc1 | > 4700 |  |  |  |  | inhibition [14]: 46% |

More lines, main results first:

| IC50 [1] [nM] | EC50 [5] [nM] | Papp A→B [7] [×10⁻⁶ cm/s] | hepatic extraction ratio at 1 µM [8] | SMILES | CC50 at 72 h [6] [nM] | further results |
| --- | --- | --- | --- | --- | --- | --- |
| 4 | 30 | < 0.1 | 0.29 | CCNCC(=O)Nc1ccc(-c2nc(=O)n(CCOC)c3c2oc2ccc(-c4ccc5c(c4)CCN(C)C5)cc23)cc1 | 4100 | hepatic extraction ratio at 1 µM [9]: 0.11 |
| 1.7 |  |  |  | CN(C)Cc1ccc(-c2ccc3oc4c(-c5ccccc5)nc(=O)n(-c5ccc([N+](=O)[O-])cc5)c4c3c2)cc1 |  |  |
| 2.8 | 33 | < 0.1 | 0.46 | CCNCC(=O)Nc1ccc(-c2nc(=O)n(CCCOC)c3c2oc2ccc(Cl)cc23)cc1 | > 8600 |  |
| 1.5 | 13 | 3.1 | 0.61 | CNc1ccc(-c2nc(=O)n(CCC3CCCO3)c3c2oc2ccc(-c4cnn(C)c4)cc23)cn1 (racemic) | 3800 | solubility at 24 h [3]: > 1000 µg/mL; logD [12]: 3.4; solubility at 24 h [4]: > 984 µg/mL |
| 7.3 |  |  |  | Cc1ccc(-n2c(=O)nc(-c3ccccc3)c3oc4ccc(-c5ccc(CN(C)C)cc5)cc4c32)cc1C#N |  |  |
| 3 | 37 | 2.6 | 0.59 | COCCCn1c(=O)nc(-c2ccc(N3CCN(C(C)C)CC3)nc2)c2oc3ccc(Cl)cc3c21 | > 3200 |  |
| 3 | 6 | 0.4 | 0.67 | COCCCn1c(=O)nc(-c2ccc(N3CCN(C)CC3)nc2)c2oc3ccc(-c4cnn(C)c4)cc3c21 | > 21700 | solubility at 24 h [3]: > 1000 µg/mL; logD [12]: 3; solubility at 24 h [4]: > 1000 µg/mL |
| 4 | 148 | 1.6 | 0.5 | CNc1ccc(-c2nc(=O)n(CCCOC)c3c2oc2ccc(-c4cnn(C)c4)cc23)cn1 | > 17000 | solubility at 24 h [3]: > 1000 µg/mL; solubility at 24 h [4]: > 1000 µg/mL |
| 2 | 18 | 9.8 | 0.81 | CCCCCn1c(=O)nc(-c2ccc(NC)nc2)c2oc3ccc(-c4cnn(C)c4)cc3c21 | 4000 | solubility at 24 h [3]: > 1000 µg/mL; logD [12]: 4.7; solubility at 24 h [4]: 0.27 µg/mL (≈ 0.61 µM) |
| 1.7 | 25 | 0.3 | 0.28 | COCCCn1c(=O)nc(-c2ccc(N3CCNCC3)cc2)c2oc3ccc(Cl)cc3c21 | 2700 |  |
| 8 | 56 | 12 | 0.78 | COCCCn1c(=O)nc(-c2ccc(N3CCN(CCOC)CC3)nc2)c2oc3ccc(Cl)cc3c21 |  |  |
